Test results reported in US6869948B1 (Boehringer Ingelheim Pharma KG, priority 1998, dated 2005).
Like-named read-outs stand apart in the source and are kept apart here.

Experiments:
[1] = cited from earlier work
[2] = Saturation solubility of meloxicam and its salts in various dissolving media; type: physicochemical; conditions: 0.1 N hydrochloric acid, pH 1, simulated gastric fluid, read-out: Solubility at ambient temperature
[3] = depending on the formulation; cited from earlier work
[4] = type: physicochemical
Experimental: Under ambient conditions the monohydrate of the meloxicam-meglumin salt is the stable modification, but at a relative humidity of over 75% a dihydrate is formed. The enclosed water can only be eliminated from the dihydrate under conditions of very great dryness. […] By intensive drying over a fairly long period the anhydrous form changes more and more into an amorphous form and after 24 h at 100° C. the material is totally amorphous.
The relevant parameters of the dehydration process are the temperature and duration of dehydration, the influence of which were observed by X-ray powder diffraction. The longer the dehydration process lasts, the less crystalline is the resulting material. […] The X-ray powder diffraction diagrams obtained after 1 hour at 80° C., 15 hours at 70° C., 20 hours at 80° C. and 24 hours at 100° C. are shown in FIG. 7.

## ibuprofen-lysinate
[1]; 8 fasting test subjects, ibuprofen-lysinate 1000 mg film-coated tablet, ibuprofenic acid 600 mg sugar-coated tablet
  time after administration to peak-plasma level: 0.55 h
[1]; non-fasting test subjects
  time after administration to peak-plasma level: 1.18 h

## Cc1cnc(NC(=O)C2=C(O)c3ccccc3S(=O)(=O)N2C)s1 [Meloxicam, 4-hydroxy-2-methyl-N-(5-methyl-2-thiazolyl)-2H-1,2-benzothiazine-3-carboxamide-1,1-dioxide]
[2]
  solubility thermodynamic: 0.9 µg/mL
[3]
  time to maximum plasma levels: 2 to 8 h

## CNC[C@H](O)[C@@H](O)[C@H](O)[C@H](O)CO.Cc1cnc(NC(=O)C2=C(O)c3ccccc3S(=O)(=O)N2C)s1.O [Example 1, Meloxicam Meglumin Salt Monohydrate]
[4]
  hygroscopic properties: hygroscopic
[4]; 24 hours at 100° C.
  solid-state change on dehydration (X-ray powder diffraction): anhydrous and totally amorphous
[4]; one hour at 80° C.
  solid-state change on dehydration (X-ray powder diffraction): no change can be detected

## CNC[C@H](O)[C@@H](O)[C@H](O)[C@H](O)CO.Cc1cnc(NC(=O)C2=C(O)c3ccccc3S(=O)(=O)N2C)s1 [Example 3, Anhydrous Meloxicam Meglumin Salt]
[4]
  stability of the anhydrous form after dehydration: very rapidly absorbs water to form the monohydrate form
